# Results published in patent US8097242B2, “Target CA125 peptides for cancer immunotherapy” (The Board of Trustees of the University of Arkansas, priority 2006, dated 2012).
# “Also recorded” adds a separate entry of the source. Where no end group is shown, it is not given here.
# Experiments:
# autologous unpulsed LCL = test: 51Cr-release cytotoxicity against unpulsed autologous LCL; format: cell-based, human; details: CTL stimulated by CA125 P10-pulsed autologous DC
# [1] = system: autologous primary ovarian cancer cells endogenously expressing CA125
# Method: Cytotoxicity was tested in a 5 hr ^51Cr-release assay against autologous primary ovarian cancer target cells and unpulsed autologous LCL at different Effector cell: Target cell ratios (E:T). Blocking monoclonal antibody (MAb) against non-polymorphic HLA A, B, and C determinants (W6/32) was also used.
# Cytotoxicity was tested in a 5 hr 5 Cr-release assay against autologous primary ovarian cancer target cells and autologous LCL at a 20:1 ratio. Blocking monoclonal antibody against non-polymorphic HLA A, B, and C determinants (W6/32) was also used.
# Briefly, viable tumor tissue was mechanically minced in RPMI 1640 to portions no larger than 1-3 mm^3 and washed twice with RPMI 1640. The portions of minced tumor were then placed into 250 ml flasks containing 30 ml of enzyme solution [0.14% collagenase Type 1 and 0.01% DNAse 2000 KU/mg; (Sigma)] in RPMI 1640, and incubated on a magnetic stirring apparatus overnight at 4° C. Enzymatically dissociated tumor was then filtered through 150 μm nylon mesh to generate a single cell suspension. The resultant cell suspension was then washed twice in RPMI 1640 plus 10% FBS (fetal bovine serum). Purity of fresh tumor cultures was tested by morphology, immunochemistry staining and/or flow cytometry with antibodies against cytokeratins. Only cell lines containing more than 99% tumor cells were evaluated in cytotoxicity assays. […]
# [2] = system: autologous primary ovarian cancer cells endogenously expressing TADG-12; test: 51Cr-release cytotoxicity against autologous ovarian cancer cells expressing TADG-12; format: cell-based, human
# Method: FIG. 9. […] A representative experiment from patient 1 is shown.
# FIG. 10. CD8^+ CTL recognition of autologous ovarian cancer cells (i.e., K ova) endogenously expressing TADG-12 by TADG-12 P5-stimulated lymphocytes. […] A representative experiment from patient 1 is shown.
# Cryopreserved peripheral blood leukocytes (PBL) from patient # 3, harboring advanced stage ovarian cancer, have been used for the generation of DC. Monocyte-derived DC were cultured in AIM-V (Gibco-BRL) supplemented with GM-CSF and IL-4 (1). After 5 days' culture, DC maturation was induced by addition of TNFα, IL-1β and PGE2 (1). Mature DC were pulsed for 1-2 hr at 37° C. with 50 μg/ml of all 8 TADG-12-derived peptides, and washed twice before culture with PBL at a responder:stimulator ratio of 30:1. The culture medium was AIM-V plus 5% human AB serum (Gemini Bioproducts). No IL-2 was added. After 7 days, responder T cells were collected and restimulated with peptide-pulsed DC. For the second and third DC stimulations, the medium was supplemented with 50-100 U/ml IL-2, and the culture period extended to 14 days. After the third cycle, CD8+ T cells were recovered by positive selection with anti-CD8 magnetic beads (Dynal). Subsequent restimulations (passages) of CD8+ T cells used peptide-loaded autologous PBL as antigen-presenting cells.
# [3] = system: autologous LCL pulsed with CA125-derived peptides; test: 51Cr-release cytotoxicity of peptide-specific CD8+ T cells against LCL pulsed with CA125 peptides; format: cell-based, human; details: CD8+ T cells from a healthy donor, autologous LCL pulsed with 50 μg/ml peptide, 5 hour 51Cr-release
# Method: Dendritic cells were loaded with the CA125 peptides of Table 3 and used to amplify CD8+ T cells cytotoxic against cells displaying the cognate peptide as described in Example 5. The amplified CD8+ T cell lines were tested for cytoxicity against autologous lymphoblastoid cell lines (LCL) pulsed with the CA125 peptide used to amplify the T cells. Cytotoxicity was tested in a 5 hour ^51Cr-release assay against autologous LCL and autologous LCL pulsed with 50 μg/ml peptide (5, 6). […] Natural killer (NK)-sensitive K562 cells were not lysed (data not shown).
# [4] = system: primary ovarian cancer cells; test: Flow cytometry of MHC class I, HLA-A2 and ICAM-1 on primary ovarian tumor cells after IFN-γ; format: cell-based, human; details: 500 U/ml for 48 hrs
# Method: Briefly, tumor cells were harvested with 0.25 percent trypsin in HBBS (Gibco, Grand Island, N.Y.) and washed once in complete medium. Cell suspensions were counted and distributed into 12×75 mm tubes at 5×10^5 cells/tube. Mouse monoclonal antibodies [anti-HLA class I (MAb W6/32); anti-HLA-A2 (BB7-2) and anti-HLA Class II (MAb CR3-43) Accurate Chemical and Scientific Corporation, Westbury, N.Y.); and anti-ICAM-1 (MAb LB-2; Becton Dickinson)] were diluted in cold assay buffer (PBS, pH 7.2, supplemented with 0.1% FCS) and added in a 50-μl volume. A mouse IgG preparation (MAb IgG2a; Becton Dickinson) was used as negative control. Tumor cells were analyzed by FACScan (Becton Dickinson) utilizing Cell Quest software (Becton Dickinson).
# In contrast, MHC class II molecule expression was negligible in all 3 primary tumor cell lines tested (data not shown).
# [5] = system: primary ovarian cancer cell lines; test: Real time PCR of CA125 and TADG-12 mRNA after IFN-γ; format: cell-based, human; details: after exposure to IFN-γ, data not shown
# Method: Importantly, because tissue digestion and prolonged in vitro cell culture may potentially alter CA125 and TADG-12 antigen expression, primary ovarian cancer cell lines were evaluated before and after several in vitro passages for CA125 and TADG-12 expression by real time PCR and flow cytometry. Briefly, RNA extraction was performed on autologous primary ovarian cancer cell lines when tumor cells were 50% to 80% confluent after no passages (i.e., P0) and up to a maximum of twenty passages in vitro. RNA isolation was performed using TRIzol Reagent (Invitrogen) according to the manufacturer's instructions. To verify integrity, 4 μg of RNA from each sample was run in 1% agarose gel using 18S+28S Ribosomal RNA (Sigma) as positive control. Briefly, five μg of total RNA from each sample was reverse-transcribed using SuperScript III first strand cDNA synthesis (Invitrogen). […] Quantitative-RT-PCR was performed with an ABI Prism 7000 Sequence Analyzer using the manufacturer's recommended protocol (Applied Biosystems, Foster City, Calif.) to evaluate expression of CA125 and TADG-12 in primary tumors. […] Primers specific for 18S ribosomal RNA and empirically determined ratios of 18S competimers (Applied Biosystems) were used to control for the amount of cDNA generated from each sample. […]
substance,measurement,setting,value
"YTLDRDSLYV [P10 CA125/10, YTLDrDSLYV]",cytotoxicity against autologous unpulsed LCL,autologous unpulsed LCL,not against autologous unpulsed LCL
"FMVPFTLNFT [P11 CA125/10, FMVPfTLNFT]",cytotoxicity against autologous primary ovarian cancer cells endogenously expressing CA125,[1],"Unlike peptides 7, 11 and 12, only the CA125 YTLDrDSLYV (SEQ ID NO:10) peptide (P10) was found to be reliably cytotoxic"
"TLLVTGTSRV [P12 CA125/10, TLLVtGTSRV]",cytotoxicity against autologous primary ovarian cancer cells endogenously expressing CA125,[1],"Unlike peptides 7, 11 and 12, only the CA125 YTLDrDSLYV (SEQ ID NO:10) peptide (P10) was found to be reliably cytotoxic"
"YLPKSWTIQV [P5 TADG12/10, YLPKsWTIQV]",cytotoxicity against autologous primary ovarian cancer cells endogenously expressing TADG-12,"[2]; TADG-12 peptides, CTL stimulated by peptide-pulsed DC, 5 hr 51Cr-release, listed as SEQ ID NO: 17",consistently lyse autologous ovarian tumor cells expressing TADG-12
LLMPfTLNFT (LLMPFTLNFT; listed as Homo sapiens) [P9 CA125/10],% Lysis,[3],0%
IFN-γ: Cytokine to which primary ovarian tumor cells were exposed (500 U/ml for 48 hrs),effect of IFN-γ exposure of tumor cells on recognition and killing by peptide-specific CTL,[2]; exposure for 48 hrs,further increased recognition and killing of autologous ovarian cancer cells; also recorded: significantly increase the cytotoxic activity
same,"MHC class I, HLA-A2 and ICAM-1 expression levels",[4],markedly up-regulate
same,expression levels of CA125 and TADG-12 mRNA,[5],did not detect any change
